Test results published in the supplement of paper PMC11451515.

Columns and labels:
Settings in all cases: 48 h
NOMO1 [1] = experiment: cell viability relative to DMSO control; higher = less cytotoxic
How it was run: (§1)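 Cells were incubated for 48 h at 37°C before CellTiter-Glo One luminescence was read. The cells were NOMO1 or SEM (500 cells/well) or P12-Ichikawa (1000 cells/well) leukemia cells, adapted for at least four passages in each medium and seeded in 1536-well plates (5 μl). Dosing used library compounds in DMSO applied by pin over 11 threefold points, 47 μM to 0.79 nM. Viability is the per-plate percentage of DMSO wells, with cell-free wells as background.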

P12-Ichikawa [2] = experiment: as above
How it was run: as §1

SEM cells [3] = experiment: as above
How it was run: as §1

NOMO1 [4] = experiment: AUC of viability dose-response curve (% viability x log10 dose units); higher = less sensitive
How it was run: (§2)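 Leukemia cells adapted to each medium were seeded in 1536-well plates (500 or 1000 cells/well) and given library compounds in DMSO for 48 h at 37°C. The 11 threefold doses spanned 47 μM to 0.79 nM, and CellTiter-Glo One luminescence was normalised per plate to DMSO and cell-free wells before four-parameter log-logistic fitting on log10 dose. Area under the curve was integrated with the trapezoidal rule, scaling curves above full viability and removing curves that failed quality control.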

P12-Ichikawa [5] = experiment: as above
How it was run: as §2

SEM cells [6] = experiment: as above
How it was run: as §2

O=C(CCCCCCC(=O)Nc1cccnc1)NO
cell viability [%]
Settings	NOMO1 [1]	P12-Ichikawa [2]	SEM cells [3]
HPLM + 10% dialyzed FBS, 0.000781 µM	92.3	93	78.3
HPLM + 10% dialyzed FBS, 0.00234 µM	108	99.9	106
HPLM + 10% dialyzed FBS, 0.00702 µM	105	96.9	96.7
HPLM + 10% dialyzed FBS, 0.0211 µM	101	96.9	97.2
HPLM + 10% dialyzed FBS, 0.0632 µM	114	105	114
HPLM + 10% dialyzed FBS, 0.19 µM	91.1	109	104
HPLM + 10% dialyzed FBS, 0.569 µM	108	99.5	108
HPLM + 10% dialyzed FBS, 1.71 µM	109	90.8	88.5
HPLM + 10% dialyzed FBS, 5.12 µM	91.3	82.1	76.8
HPLM + 10% dialyzed FBS, 15.4 µM	70.5	12.2	17.6
HPLM + 10% dialyzed FBS, 46.1 µM	8.89	4.36	6.38
RPMI 5 mM glucose + 10% FBS, 0.000781 µM	83.6	82.5	101
RPMI 5 mM glucose + 10% FBS, 0.00234 µM	91.2	95.6	105
RPMI 5 mM glucose + 10% FBS, 0.00702 µM	98	93.7	102
RPMI 5 mM glucose + 10% FBS, 0.0211 µM	84.1	93.4	106
RPMI 5 mM glucose + 10% FBS, 0.0632 µM	84.9	97.5	101
RPMI 5 mM glucose + 10% FBS, 0.19 µM	91.8	95.4	115
RPMI 5 mM glucose + 10% FBS, 0.569 µM	100	99.6	97.5
RPMI 5 mM glucose + 10% FBS, 1.71 µM	83.6	85.7	77.2
RPMI 5 mM glucose + 10% FBS, 5.12 µM	84.3	76.1	81.7
RPMI 5 mM glucose + 10% FBS, 15.4 µM	72.8	9.59	11.9
RPMI 5 mM glucose + 10% FBS, 46.1 µM	12.3	3.79	5.78
RPMI 5 mM glucose + 10% dialyzed FBS, 0.000781 µM	101	86.9	87.8
RPMI 5 mM glucose + 10% dialyzed FBS, 0.00234 µM	92.3	92.8	93.6
RPMI 5 mM glucose + 10% dialyzed FBS, 0.00702 µM	93.9	90.7	89.2
RPMI 5 mM glucose + 10% dialyzed FBS, 0.0211 µM	93.1	91.9	101
RPMI 5 mM glucose + 10% dialyzed FBS, 0.0632 µM	101	94.7	95.5
RPMI 5 mM glucose + 10% dialyzed FBS, 0.19 µM	102	95.1	99
RPMI 5 mM glucose + 10% dialyzed FBS, 0.569 µM	110	94.3	105
RPMI 5 mM glucose + 10% dialyzed FBS, 1.71 µM	85.1	85.2	81.9
RPMI 5 mM glucose + 10% dialyzed FBS, 5.12 µM	95.4	73.9	64
RPMI 5 mM glucose + 10% dialyzed FBS, 15.4 µM	74.1	10	13.5
RPMI 5 mM glucose + 10% dialyzed FBS, 46.1 µM	12.7	3.83	6.39

AUC of viability dose-response curve
Settings	NOMO1 [4]	P12-Ichikawa [5]	SEM cells [6]
HPLM + 10% dialyzed FBS	435	400	401
RPMI 5 mM glucose + 10% FBS	399	374	402
RPMI 5 mM glucose + 10% dialyzed FBS	432	368	375

CC\12CCC(=O)\C=C1CCC3C2CCC4(C)C3CCC4(O)C#C (centres undefined)
cell viability [%]
Settings	NOMO1 [1]	P12-Ichikawa [2]	SEM cells [3]
HPLM + 10% dialyzed FBS, 0.000781 µM	98.9	102	105
HPLM + 10% dialyzed FBS, 0.00234 µM	101	101	104
HPLM + 10% dialyzed FBS, 0.00702 µM	106	99.2	105
HPLM + 10% dialyzed FBS, 0.0211 µM	91.1	93.9	99.9
HPLM + 10% dialyzed FBS, 0.0632 µM	112	97.9	113
HPLM + 10% dialyzed FBS, 0.19 µM	100	93.4	102
HPLM + 10% dialyzed FBS, 0.569 µM	98.3	92	103
HPLM + 10% dialyzed FBS, 1.71 µM	98.8	92.3	117
HPLM + 10% dialyzed FBS, 5.12 µM	77.5	94.2	91.1
HPLM + 10% dialyzed FBS, 15.4 µM	86.4	80.6	94.9
HPLM + 10% dialyzed FBS, 46.1 µM	88	92.3	90.5
RPMI 5 mM glucose + 10% FBS, 0.000781 µM	89.9	99.3	107
RPMI 5 mM glucose + 10% FBS, 0.00234 µM	93.2	102	92.2
RPMI 5 mM glucose + 10% FBS, 0.00702 µM	97.4	97.7	99.2
RPMI 5 mM glucose + 10% FBS, 0.0211 µM	103	100	102
RPMI 5 mM glucose + 10% FBS, 0.0632 µM	86.6	96.8	94.5
RPMI 5 mM glucose + 10% FBS, 0.19 µM	94.9	97.1	106
RPMI 5 mM glucose + 10% FBS, 0.569 µM	88.8	93.1	95.7
RPMI 5 mM glucose + 10% FBS, 1.71 µM	84	96.6	95.8
RPMI 5 mM glucose + 10% FBS, 5.12 µM	87.2	85.7	70.7
RPMI 5 mM glucose + 10% FBS, 15.4 µM	88.1	81.8	100
RPMI 5 mM glucose + 10% FBS, 46.1 µM	74.7	90.3	99
RPMI 5 mM glucose + 10% dialyzed FBS, 0.000781 µM	99.8	83.5	112
RPMI 5 mM glucose + 10% dialyzed FBS, 0.00234 µM	101	85.6	105
RPMI 5 mM glucose + 10% dialyzed FBS, 0.00702 µM	95.8	88.9	98.3
RPMI 5 mM glucose + 10% dialyzed FBS, 0.0211 µM	95.5	91.1	113
RPMI 5 mM glucose + 10% dialyzed FBS, 0.0632 µM	99.6	95.7	117
RPMI 5 mM glucose + 10% dialyzed FBS, 0.19 µM	96.1	93.6	102
RPMI 5 mM glucose + 10% dialyzed FBS, 0.569 µM	74.9	91.1	113
RPMI 5 mM glucose + 10% dialyzed FBS, 1.71 µM	79.2	88.6	98.5
RPMI 5 mM glucose + 10% dialyzed FBS, 5.12 µM	73.9	85.4	97.3
RPMI 5 mM glucose + 10% dialyzed FBS, 15.4 µM	83.5	84.2	106
RPMI 5 mM glucose + 10% dialyzed FBS, 46.1 µM	85.7	83	99.9

AUC of viability dose-response curve
Settings	NOMO1 [4]	P12-Ichikawa [5]	SEM cells [6]
HPLM + 10% dialyzed FBS	456	442	452
RPMI 5 mM glucose + 10% FBS	430	452	461
RPMI 5 mM glucose + 10% dialyzed FBS	428	421	458

COc1ccc(OC)c(-c2nnc3ccc(-c4ccc(OC)c(O[C@@H]5CCOC5)c4)nn23)c1
cell viability [%]
Settings	NOMO1 [1]	P12-Ichikawa [2]	SEM cells [3]
HPLM + 10% dialyzed FBS, 0.000781 µM	–	119	105
HPLM + 10% dialyzed FBS, 0.00234 µM	–	118	106
HPLM + 10% dialyzed FBS, 0.00702 µM	–	118	124
HPLM + 10% dialyzed FBS, 0.0211 µM	–	126	115
HPLM + 10% dialyzed FBS, 0.0632 µM	–	136	119
HPLM + 10% dialyzed FBS, 0.19 µM	–	117	127
HPLM + 10% dialyzed FBS, 0.569 µM	–	126	125
HPLM + 10% dialyzed FBS, 1.71 µM	–	132	123
HPLM + 10% dialyzed FBS, 5.12 µM	–	128	134
HPLM + 10% dialyzed FBS, 15.4 µM	–	124	119
HPLM + 10% dialyzed FBS, 46.1 µM	–	105	86.4
RPMI 5 mM glucose + 10% dialyzed FBS, 0.000781 µM	123	–	103
RPMI 5 mM glucose + 10% dialyzed FBS, 0.00234 µM	120	–	109
RPMI 5 mM glucose + 10% dialyzed FBS, 0.00702 µM	140	–	117
RPMI 5 mM glucose + 10% dialyzed FBS, 0.0211 µM	128	–	115
RPMI 5 mM glucose + 10% dialyzed FBS, 0.0632 µM	137	–	116
RPMI 5 mM glucose + 10% dialyzed FBS, 0.19 µM	140	–	112
RPMI 5 mM glucose + 10% dialyzed FBS, 0.569 µM	134	–	123
RPMI 5 mM glucose + 10% dialyzed FBS, 1.71 µM	147	–	131
RPMI 5 mM glucose + 10% dialyzed FBS, 5.12 µM	137	–	117
RPMI 5 mM glucose + 10% dialyzed FBS, 15.4 µM	145	–	122
RPMI 5 mM glucose + 10% dialyzed FBS, 46.1 µM	98.3	–	89.7

AUC of viability dose-response curve
Settings	NOMO1 [4]	P12-Ichikawa [5]	SEM cells [6]
HPLM + 10% dialyzed FBS	463	473	477
RPMI 5 mM glucose + 10% FBS	477	458	470
RPMI 5 mM glucose + 10% dialyzed FBS	469	466	473
